The values that follow come from patent US11840530B2, “Selective EP4 receptor antagonistic substance for treatment of cancer” (AskAt Inc., priority 2009, dated 2023).

The subject of experiment [1] is LL/2 (cell line derived from mouse lung cancer). Put plainly: LL/2 subcutaneously implanted to C57BL/6 mice, tumor weight. The class given is in vivo. Conditions: vs vehicle. As for the experimental part:
A cell line derived from mouse lung cancer, LL/2, was subcutaneously implanted to C57BL/6 mice. (According to the method described in Cancer Research. Volume 58, Pages 2583-2587, 1998, this model extrapolates the lung cancer development and growth.) When the mean tumor weight reached 100 mg, vehicle (n=10), compound B once a day at a dose of 0.3 mg/kg (n=10), or compound C twice a day at a dose of 10 mg/kg (n=10) was administered for 25 days. The tumor weight was calculated as (major axis)×(minor axis)^2×0.5 using the measured values. […] In FIG. 5, solid square (▪), solid triangle (▴), and solid circle (●) represent a group administered vehicle (control), a group administered compound B, and a group administered compound C, respectively.

In experiment [2] the test system is gastric tumor of K19-Wnt1/C2mE mice. The experiment in a line: Spontaneous gastric cancer model mice, tumor size by X-ray CT. Format: in vivo, mouse. Conditions: for sizes of tumors by X-ray CT (relative mean tumor area, FIG. 3): per os 3 mg/kg and 30 mg/kg once a day for five weeks, vs vehicle. Here is the method:
Among human gastric cancer patients, Wnt up-regulation is observed in 30% to 50%, and induction of COX-2 is observed in more than 70%. Therefore, the K19-Wnt1/C2mE is positioned as a mouse model which extrapolates human gastric cancer in terms of molecular mechanism (Nature Review Cancer, Volume 7, Pages 645-658, 2007).
The experiment was conducted using five spontaneous gastric cancer model mice at 50 weeks old (K19-Wnt1/C2mE mice). The mice develop large tumors in stomach at 50 weeks old, and the size of tumor can be measured with X-ray CT. The sizes of tumors were measured with X-ray CT before administration and at week 1, week 2, and week 3 after administration, and the sizes of tumors were compared. Compound A was continuously administered at a dose of 100 mg/kg twice a day for three weeks. A methyl cellulose was used as a vehicle.
Experiment was conducted using six gastric cancer model mice at 46 to 68 weeks old (K19-Wnt1/C2mE mice). Compound B was continuously administered per os at a dose of 3 mg/kg (n=2), 30 mg/kg (n=2) and vehicle control (n=2) once a day for five weeks. The measurements of tumor sizes were conducted in the same manner as example 1. It was confirmed by X-ray CT scanning that the sizes of tumors increased in a time-dependent manner during test period in two vehicle controls. […] In the FIG. 3, a relative value of the mean tumor area after treatment to that before treatment (0 w) set to 100 is shown with time. Solid square (▪) and solid diamond (♦) represent control model mice. Dotted triangle (▴) and dotted cross (X) represent model mice each administered compound B at a dose of 3 mg/kg. Solid star (*) and solid circle (●) represent model mice each administered compound B at a dose of 30 mg/kg.

Experiment [3] relates to colon26 (cell line derived from mouse colon cancer). Put plainly: colon26 subcutaneously implanted to CD2F1 mice, tumor weight. Format: in vivo. Conditions: vs vehicle. Here is the method: A cell line derived from mouse colon cancer, colon26, was subcutaneously implanted to CD2F1 mice. (According to the method described in Int. J. Cancer, Volume 121, Pages 878-883, 2007, this model extrapolates the colon cancer development and growth in terms of molecular mechanism.) When the mean tumor weight reached 100 mg, vehicle (n=10), compound B once a day at a dose of 30 mg/kg (n=10), or compound C twice a day at a dose of 200 mg/kg (n=10) was administered for 20 days. The tumor weight was calculated as (major axis)×(minor axis)^2×0.5 using the measured values. […] In FIG. 4, solid square (▪), solid triangle (▴), and solid circle (●) represent a group administered vehicle (control), a group administered compound B, and a group administered compound C, respectively.

Experiment [4] concerns breast cancer cells. Conditions: non-patent literature 5; cited from earlier work.
Experiment [5] relates to intestinal polyp in APC gene knockout mice. Conditions: non-patent literature 6; cited from earlier work.
The test system of experiment [6] is azoxymethane-induced colon aberrant crypt foci. Conditions: non-patent literature 6; cited from earlier work.
For experiment [7], the system named is colon cancer cell (HCA-7). Conditions: non-patent literature 4; cited from earlier work.

`C[C@H](NC(=O)c1cc(Cl)cnc1Oc1cccc(F)c1)c1ccc(C(=O)O)cc1` [Compound B]: the “tumor size (calculated tumor weight, FIG. 5)” value in experiment [1] (0.3 mg/kg once a day for 25 days) was “Remarkable reductions of tumor size”. For the same compound, the “sizes of tumors by X-ray CT (relative mean tumor area, FIG. 3)” value in experiment [2] was “reduced in a dose-dependent manner”. For the same compound, the “tumor size by X-ray CT at a dose of 3 mg/kg” value in experiment [2] (per os 3 mg/kg once a day for five weeks) is “effective reduction of tumor size”. In experiment [2] (per os once a day for five weeks, compared with vehicle control group), the “tumor lesions in autopsy” value is on record as “remarkable shrinkages of tumor lesions”. Further, the “tumor size (calculated tumor weight, FIG. 4)” value in experiment [3] (30 mg/kg once a day for 20 days) is given as “Remarkable reductions of tumor size”.

With `CCc1nc2c(C)nc(C)cc2n1-c1ccc(CCNC(=O)NS(=O)(=O)c2ccc(C)cc2)cc1` [Compound C, 3-[2-(4-{2-ethyl-4,6-dimethyl-1H-imidazo[4,5-c]pyridin-1-yl}phenyl)ethyl]-1-[(4-methylbenzene)sulfonyl]urea], the “tumor size (calculated tumor weight, FIG. 5)” value in experiment [1] (10 mg/kg twice a day for 25 days) is given as “Remarkable reductions of tumor size”. For the same compound, in experiment [2], the “sizes of tumors by X-ray CT (relative mean tumor area, FIG. 3)” value is reported as “tumor size dramatically reduced”. Moreover, the “tumor size (calculated tumor weight, FIG. 4)” value in experiment [3] (200 mg/kg twice a day for 20 days) is on record as “Remarkable reductions of tumor size”.

For the compound `O=C(O)CC/C=C\CC[C@H]1[C@H](N2CCOCC2)C(=O)C[C@H]1OCc1ccc(-c2ccccc2)cc1` [AH23848], the “metastasis of breast cancer cells” value in experiment [4] is on record as “metastasis suppression”.

With `CC(C(=O)Nc1ccccc1Cc1ccccc1C(=O)O)c1cccc2ccccc12` (centres unmarked) [ONO-AE2-227], the “formation of intestinal polyp” value in experiment [5] is reported as “reduced formation of intestinal polyp”. The “formation of azoxymethane-induced colon aberrant crypt foci” value in experiment [6] is “reduced formation”.

Consider `C[C@H](NC(=O)c1cc(Cl)ccc1Oc1ccc(F)cc1)c1ccc(C(=O)O)cc1` [Compound A, 4-((1S)-1-{[5-chloro-2-(4-fluorophenoxy)benzoyl]amino}ethyl)benzoic Acid], for which the “histological analysis of excised tissues after the treatment” value in experiment [2] (100 mg/kg twice a day for three weeks, visual observation) is on record as “disappearance of irregular glandular branching in tumor epithelium”. Further, the “relative tumor volume compared with untreated mice (FIG. 2)” value in experiment [2] (100 mg/kg twice a day for three weeks, vs 55 to 60 week old untreated K19-Wnt1/C2mE mice (n=7)) is listed as “tumor was shrunk effectively”. The “tumor mass in CT images at three weeks post-administration” value in experiment [2] (100 mg/kg twice a day, all the five mice) is given as “tumor mass almost completely disappeared”. Besides, the “tumor size in the first week (X-ray CT)” value in experiment [2] (100 mg/kg twice a day, two individuals with particularly large tumor before administration) is listed as “remarkable reductions of the tumor size”.

As for `CC(C(=O)Nc1cc(C#N)ccc1CCCC(=O)O)c1ccc(F)c2ccccc12` (centres unmarked) [ONO-AE3-208], the “metastasis of breast cancer cells” value in experiment [4] is “metastasis suppression”.

Turning to `CCCCc1nn(-c2ccccc2C(F)(F)F)c(=O)n1Cc1ccc(-c2ccccc2S(=O)(=O)NC(=O)c2sccc2C)cc1` [L-161,982], the “growth of colon cancer cell” value in experiment [7] was “growth inhibition”.
